Tested on: activated equine neutrophils
Assay: Combined SIEFED-ELISA measurement of total and active MPO released by PMA-activated equine neutrophils pre-incubated with polyphenols
Format: cell-based, horse
Conditions: for inhibition percentage on total enzyme (MPO) release / inhibition percentage on MPO activity (active fraction of MPO released): 10^-5 M, neutrophils pre-incubated 10 min at 37° C., activated 30 min with 8×10^−7 M PMA, supernatant
Description: The primary antibody(2), that captures the enzyme (MPO 1), is a rabbit IgG (3 μg/ml). Standard enzyme (MPO) or unknown sample is incubated 2 h at 37° C. After washing, the (peroxidase) activity of the enzyme (MPO) is detected by adding 100 μl of a 10 μM H2O2 solution and 40 μM of Amplex® Red (8) (10-acetyl-3,7-dihydroxyphenoxazine; from Molecular Probes) in phosphate buffer (50 mM, pH 7.5). The fluorescence is read during 30 min (at 37° C.) at 590 nm with a Fluoroskan Ascent apparatus (Labsystems). The volumes of the primary antibody(2) and the sample put in the wells, are 200 μl. Controls (blank) and dilutions of the samples are established with dilution buffer.
Enhancement of fluorescence was obtained when adding a defined concentration of nitrites ions (about 10 mM) to the Amplex® Red solution (8). The fluorescence response obtained in this SIEFED steps (part) of the combined SIEFED-ELISA bioassay is directly proportional to the enzymatically active fraction of the enzyme (equine MPO) present in the sample.
After the SIEFED detection, a washing (0.9% NaCl solution containing 0.1% tween 20) is performed before starting the ELISA part of the combined method; the immobilized antibody(2)—antigen(1) complex is incubated (2 h, 37° C.) with an excess (5 μg/ml) of guinea pig IgG, the secondary antibody (4). After washing, a third antibody (5) produced against guinea pig IgG is added. This third IgG (5) (goat IgG) is labeled with alkaline phosphatase (6) and recognizes the “sandwich” complex “primary antibody (2)—MPO(1)—secondary antibody”(4). After washing, phosphatase activity is detected by incubation (30 min, 37° C., in the darkness) with a paranitrophenyl phosphate solution (phosphatase substrate, Sigma). The reaction is stopped with NaOH and the absorbance (405 nm) is measured with a Multiscan Ascent apparatus (Labsystem). All the volumes added into the wells comprise 100 μl, except for washing (300 μl) and for the substrate solution (200 μl). Controls (blank) and dilutions of the standard enzyme (MPO) and samples were established with dilution buffer [PBS (20 mM phosphate, 137 mM NaCl and 2.7 mM KCl pH 7.4) to which 5 g/L bovine serum albumin and 0.1% tween 20 were added].
Neutrophils isolated from citrated blood of healthy horses were counted, suspended in phosphate buffer saline (PBS) at pH 7.4 and incubated 10 min at 37° C. with curcumin or THC at the final concentration of 10^−4, 10^−5 or 10^−6 M. After incubation and centrifugation (1000×g, 10 min), the neutrophils were resuspended in PBS and activated 30 min with 8×10^−7 M phorbol myristate acetate (PMA) followed by centrifugation and active and total enzyme (MPO) measurement in the supernatant by the combined SIEFED-ELISA specific bioassay. The effects of polyphenols on total and active fraction of enzyme (MPO) released by stimulated neutrophils were studied by pre-incubation of neutrophils with the drugs at various concentrations, before the neutrophil stimulation.

Structure (SMILES) | inhibition percentage on total enzyme (MPO) release (ELISA part) [%] | inhibition percentage on MPO activity (active fraction of MPO released) (SIEFED part) [%] | effect on the total enzyme (MPO) released by activated neutrophils (10^−4, 10^−5 or 10^−6 M, PMA-activated equine neutrophils, ELISA part) | effect on the active fraction of the enzyme (MPO) released by activated neutrophils (10^−4, 10^−5 or 10^−6 M, PMA-activated equine neutrophils, SIEFED part)
COc1cc(CCC(=O)CC(=O)CCc2ccc(O)c(OC)c2)ccc1O [THC, Tetrahydrocurcumin] | 18 | 22 | – | –
COc1cc(/C=C/C(=O)CC(=O)/C=C/c2ccc(O)c(OC)c2)ccc1O [curcumin, Curcumin] | 44 | 60 | dose dependent inhibitory effects | dose dependent inhibitory effects

Reference: US20100196926A1, “Combined Method And Kit For The Sequential Measurement of (1) The Enzymatically Active Fraction And (2) The Total Amount Of An Enzyme” (UNIVERSITE DE LIEGE, priority 2007, published 2010)
